Experiments:
GLP-1 receptor [1] = molecular target: T1, GLP-1 receptor (Rattus norvegicus, UniProt P32301); assay: Agonist character: cyclic AMP production in RIN T3 cells; assay type: cell-based; details: 20 minutes at 25° C., 100% = cAMP induced by 10^−8M GLP-1
T1 construct: endogenous in cells; host or cells: RIN T3 cells (membranes in A1, whole cells in A2)
T1 sequence (P32301 22-463): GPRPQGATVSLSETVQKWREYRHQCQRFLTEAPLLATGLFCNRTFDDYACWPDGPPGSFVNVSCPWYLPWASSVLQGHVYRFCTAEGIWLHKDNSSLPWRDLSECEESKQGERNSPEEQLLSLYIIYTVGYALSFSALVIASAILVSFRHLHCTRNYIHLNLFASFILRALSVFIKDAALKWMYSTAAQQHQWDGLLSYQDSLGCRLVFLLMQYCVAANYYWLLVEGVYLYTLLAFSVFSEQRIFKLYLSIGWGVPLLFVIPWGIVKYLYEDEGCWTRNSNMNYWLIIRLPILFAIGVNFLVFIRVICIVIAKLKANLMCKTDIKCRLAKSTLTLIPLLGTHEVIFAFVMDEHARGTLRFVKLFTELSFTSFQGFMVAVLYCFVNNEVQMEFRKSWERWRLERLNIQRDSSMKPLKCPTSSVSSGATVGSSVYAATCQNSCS
Procedure: The agonist character of the compounds of the invention was determined by measuring the production of cyclic AMP after activation of the receptor by the different products being tested.
RIN T3 cells are cultured for 6 days and the culture medium is chanced 1 day before the experiment. The cells (3×10^5 per well) are washed twice with DMEM before the addition of 0.5 ml of DMEM containing 1% BSA, 0.2 ml of IBMX and the peptide being tested. After incubation for 20 minutes at 25° C., the intracellular cAMP is extracted, succinylated and quantified by radioimmunoassay.
The reference value of 100% corresponds to the production of cAMP induced by a concentration of 10^−8M GLP-1 and the value 0% corresponds to the basal production in the absence of GLP-1.

GLP-1 receptor [2] = molecular target: T1, GLP-1 receptor; assay: GLP-1 receptor binding study (RIN T3 membranes, [125I]-GLP-1); details: [125I]-GLP-1, 45 min at 37° C., read-out: affinity (IC50)
Procedure: The GLP-1 receptor binding studies were carried out using RIN T3 membranes in a […] Tris-HCl buffer pH 7.5 containing 4% BSA and […] of bacitracin. The membranes (20 to 30 μg) are incubated in a final volume of 500 μl with approximately 15 fmol of [125I]-GLP-1 (50,000 cpm) and the cold competitor for 45 min. at 37° C. The reaction is stopped by the addition of 750 μl of cold KRP buffer, pH 7.5, containing 3% BSA. The mixture is centrifuged at 12,000×g (4° C., 5 min). The residue is resuspended in 1 ml of cold KRP buffer and sedimented by a further centrifugation, and the radioactivity is measured. The results are expressed as IC50.

[3] = molecular target: dipeptidyl peptidase IV (DPP IV) (Homo sapiens, UniProt P27487); assay: Metabolic stability towards dipeptidyl peptidase IV; assay type: in vitro ADME
dipeptidyl peptidase IV (DPP IV), sequence (P27487 whole entry, species assumed): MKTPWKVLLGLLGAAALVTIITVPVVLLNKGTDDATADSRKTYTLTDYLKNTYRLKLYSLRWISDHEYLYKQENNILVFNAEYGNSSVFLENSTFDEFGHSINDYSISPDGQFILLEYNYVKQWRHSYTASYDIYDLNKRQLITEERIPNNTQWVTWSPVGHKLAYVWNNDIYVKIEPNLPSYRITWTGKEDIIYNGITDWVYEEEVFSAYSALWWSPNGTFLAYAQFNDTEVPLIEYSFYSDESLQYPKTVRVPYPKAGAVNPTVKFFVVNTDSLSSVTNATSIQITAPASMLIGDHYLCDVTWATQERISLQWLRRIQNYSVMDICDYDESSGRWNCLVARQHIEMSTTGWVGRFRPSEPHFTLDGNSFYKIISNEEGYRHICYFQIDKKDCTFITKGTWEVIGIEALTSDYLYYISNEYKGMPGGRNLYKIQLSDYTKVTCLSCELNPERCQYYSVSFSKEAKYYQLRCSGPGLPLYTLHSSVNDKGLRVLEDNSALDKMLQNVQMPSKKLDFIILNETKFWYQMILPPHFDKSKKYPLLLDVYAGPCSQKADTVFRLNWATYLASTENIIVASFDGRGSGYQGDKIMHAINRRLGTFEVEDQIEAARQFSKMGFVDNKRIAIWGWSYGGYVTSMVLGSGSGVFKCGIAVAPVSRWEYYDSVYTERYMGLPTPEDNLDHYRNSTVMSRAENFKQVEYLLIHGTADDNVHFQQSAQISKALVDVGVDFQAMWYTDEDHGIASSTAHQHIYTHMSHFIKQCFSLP
Procedure: Each compound is dissolved in 50 mg/ml of BSA in an aqueous 1% trifluoroacetic acid solution to obtain a concentration of 1 mg/ml.
50 μl samples of the above-prepared solution containing 1 mg/ml of the peptide are added to 940 μl of 0.1M TRIS, pH 8.0. After analysis of the solution by HPLC to determine the amount of peptide, 10 μl of an aqueous solution containing 48 milli-units of dipeptidyl peptidase IV (DPP IV) are added, and the samples are analysed by HPLC at time T0 and after incubation for 10 minutes at 37° C.
The measurement results enable evaluation of the amount of peptide remaining and are expressed as a percentage in relation to T0.

in vitro = in vitro ADME; details: human, plasma
Procedure: An aliqout of 50 μg/ml of a solution containing the peptide to be studied is incubated in human plasma at 37° C. An HPLC linear analysis method allows measurement of the amount of peptide at time T0, then after incubation for 5, 10, 15, 30 and 60 minutes.

Row | Molecule | EC50 (GLP-1 receptor [1]) | IC50 (GLP-1 receptor [2]) | remaining at 10 min, 50 μg/ml ([3]; isolated enzyme dpp iv, pH 8) | remaining at 5 min, 50 μg/ml (in vitro) | remaining at 10 min, 50 μg/ml (in vitro) | remaining at 0.25 h, 50 μg/ml (in vitro) | remaining at 0.5 h, 50 μg/ml (in vitro) | remaining at 1 h, 50 μg/ml (in vitro) | DDP IV % peptide remaining ([3]; incubation time 10 minutes, 37° C., 48 milli-units DPP IV, 0.1M TRIS pH 8.0, relative to T0)
1 | CC[C@H](C)[C@H](NC(=O)[C@H](Cc1ccccc1)NC(=O)[C@H](CCC(=O)O)NC(=O)[C@H](CCCCN)NC(=O)[C@H](C)NC(=O)[C@H](C)NC(=O)[C@H](CCC(N)=O)NC(=O)CNC(=O)[C@H](CCC(=O)O)NC(=O)[C@H](CC(C)C)NC(=O)[C@H](Cc1ccc(O)cc1)NC(=O)[C@H](CO)NC(=O)[C@H](CO)NC(=O)[C@@H](NC(=O)[C@H](CC(=O)O)NC(=O)[C@H](CO)NC(=O)[C@@H](NC(=O)[C@H](Cc1ccccc1)NC(=O)[C@@H](NC(=O)CNC(=O)[C@H](CCC(=O)O)NC(=O)[C@@H](C)NC(=O)[C@@H](N)Cc1c[nH]cn1)[C@@H](C)O)[C@@H](C)O)C(C)C)C(=O)N[C@@H](C)C(=O)N[C@@H](Cc1c[nH]c2ccccc12)C(=O)N[C@@H](CC(C)C)C(=O)N[C@H](C(=O)N[C@@H](CCCCN)C(=O)NCC(=O)NCC(N)=O)C(C)C [Example 7] | 1.02 nM | 0.33 nM | 100% | 100% | 100% | 100% | 100% | 100% | –
2 | Glucagon-Like Peptides-1 (7-37) and (7-36) NH2 [^tGLP1, reference compound] | – | – | – | – | – | – | – | – | 8%
